Experimental data reported in ChEMBL document CHEMBL4842380, “Enhanced Properties of a Benzimidazole Benzylpyrazole Lysine Demethylase Inhibitor: Mechanism-of-Action, Binding Site Analysis, and Activity in Cellular Models of Prostate Cancer” (J Med Chem, 2021).
Active and inactive are the calls of the source. No cut-off for these calls is given here.

Key:
[1] = target: T1, Lysine-specific demethylase 4E (Homo sapiens) (UniProt B2RXH2); test: Inhibition of N-terminal His6-tagged KDM4E (1 to 337 residues) (unknown origin) expressed in Escherichia coli BL21 (DE3)-R3 at highest concentration preincubated for 10 mins followed by substrate addition by fluorescence based FDH-coupled assay
T1 sequence (whole entry): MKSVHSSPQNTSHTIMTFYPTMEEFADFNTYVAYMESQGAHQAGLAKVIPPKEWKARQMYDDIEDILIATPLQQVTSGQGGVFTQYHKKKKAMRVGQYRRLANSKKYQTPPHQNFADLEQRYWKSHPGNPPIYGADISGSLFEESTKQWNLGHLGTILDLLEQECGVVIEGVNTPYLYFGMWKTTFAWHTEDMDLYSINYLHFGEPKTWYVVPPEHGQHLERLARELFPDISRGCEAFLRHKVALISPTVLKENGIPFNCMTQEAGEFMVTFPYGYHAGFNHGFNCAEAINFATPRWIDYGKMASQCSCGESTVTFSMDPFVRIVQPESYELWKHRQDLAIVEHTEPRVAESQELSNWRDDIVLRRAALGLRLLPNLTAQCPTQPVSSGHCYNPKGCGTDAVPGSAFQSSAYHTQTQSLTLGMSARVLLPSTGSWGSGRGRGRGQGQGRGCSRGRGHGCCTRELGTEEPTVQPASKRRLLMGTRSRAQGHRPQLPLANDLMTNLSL

[2] = target: T2, Lysine-specific demethylase 4E (Homo sapiens, UniProt B2RXH2); test: Inhibition of N-terminal His6-tagged KDM4E (1 to 337 residues) (unknown origin) expressed in Escherichia coli BL21 (DE3)-R3 preincubated for 10 mins followed by substrate addition by fluorescence based FDH-coupled assay
T2 sequence (B2RXH2 whole entry): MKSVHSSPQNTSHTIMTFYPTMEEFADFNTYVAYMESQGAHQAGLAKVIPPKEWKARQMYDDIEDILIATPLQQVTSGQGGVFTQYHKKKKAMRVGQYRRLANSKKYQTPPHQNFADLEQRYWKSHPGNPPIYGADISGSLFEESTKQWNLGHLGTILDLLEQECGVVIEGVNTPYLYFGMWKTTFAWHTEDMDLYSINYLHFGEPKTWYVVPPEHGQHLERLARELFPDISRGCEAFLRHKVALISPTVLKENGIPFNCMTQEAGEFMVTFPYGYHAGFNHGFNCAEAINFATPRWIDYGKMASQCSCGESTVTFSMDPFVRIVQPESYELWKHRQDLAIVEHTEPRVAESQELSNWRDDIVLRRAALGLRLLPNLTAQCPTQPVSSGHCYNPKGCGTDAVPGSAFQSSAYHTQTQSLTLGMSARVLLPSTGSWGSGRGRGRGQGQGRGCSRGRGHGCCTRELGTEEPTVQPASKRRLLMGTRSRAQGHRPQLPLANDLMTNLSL

[3] = system: LNCaP; test: Cytotoxicity against human LnCaP cells assessed as growth inhibition after 48 hrs by alamar blue assay; format: functional
[4] = Cytotoxicity against human prostate epithelial cells assessed as growth inhibition after 48 hrs by alamar blue assay; format: cell-based, Prostate cell
[5] = Cytotoxicity against human prostate epithelial cells assessed as remaining cell viability after 48 hrs by alamar blue assay; format: functional
[6] = system: DU-145; test: Cytotoxicity against human DU-145 cells assessed as remaining cell viability after 48 hrs by alamar blue assay; format: functional
[7] = Cytotoxicity against human LnCaP cells assessed as remaining cell viability after 48 hrs by alamar blue assay; format: functional, Prostate cell
[8] = system: DU-145; test: Cytotoxicity against human DU-145 cells assessed as growth inhibition after 48 hrs by alamar blue assay; format: functional
[9] = target: T2, Lysine-specific demethylase 4E; test: Inhibition of N-terminal His6-tagged KDM4E (1 to 337 residues) (unknown origin) expressed in Escherichia coli BL21 (DE3)-R3 preincubated for 10 mins followed by alpha-KG addition after CTH addition for 2 hrs by ELISA
[10] = system: PC-3; test: Cytotoxicity against human PC-3 cells assessed as remaining cell viability after 48 hrs by alamar blue assay; format: functional
[11] = system: PC-3; test: Cytotoxicity against human PC-3 cells assessed as growth inhibition after 48 hrs by alamar blue assay; format: functional

SMILES	IC50 [2] [µM]	also measured
Brc1cnn(-c2nc3ccccc3[nH]2)c1		inhibition [1]: inactive
Cc1nn(-c2nc3ccccc3n2C)c(O)c1-c1ccccc1	34	
Cc1nn(-c2ccc(Cl)nn2)c(O)c1-c1ccccc1	68	
CCCc1c(C)nn(-c2nc3ccccc3[nH]2)c1O	24	
C#CCc1c(C)nn(-c2nc3ccccc3[nH]2)c1O	5	
Cc1nn(-c2nc3ccccc3[nH]2)c(O)c1CCC(=O)O	274	
COC(=O)Cc1cc(O)n(-c2nc3ccccc3[nH]2)n1	15	GI50 [3]: 410 µM; GI50 at 48 h [4]: > 500 µM; Activity [5]: 12%; Activity [6]: 69%; Activity [7]: 15%; GI50 [8]: > 1000 µM; IC50 [9]: 581 µM; Activity [10]: 79%; GI50 [11]: > 1000 µM
COC(=O)CCc1c(C)nn(-c2nc3ccccc3[nH]2)c1O	72	
Cc1ccc(-c2c(C)nn(-c3nc4ccccc4[nH]3)c2O)cc1	27	
CNCCCc1c(C)nn(-c2nc3ccccc3[nH]2)c1O	9	

More lines, in order of falling IC50 [2], values ahead:

IC50 [2] [µM]	SMILES	also measured
437	Cc1c(CCC(=O)O)nn(-c2nc3ccccc3[nH]2)c1O	
191	C=CCc1c(C)nn(-c2ccccn2)c1O	
106	COC(=O)CCc1nn(-c2nc3ccccc3[nH]2)c(O)c1C	
27	Cc1nn(-c2nc3ccccc3[nH]2)c(O)c1Cc1ccccc1	
19	Cc1nn(-c2nc3ccc(C(=O)O)cc3[nH]2)c(O)c1-c1ccccc1	
